The test system of one experiment is eczema. The experiment in a line: Conditioning the skin of a human patient with severe eczema. Format: in vivo. To be noted: about 50 mg daily. How it is done: A human patient having a severe form of eczema is treated according to the present invention. Specifically, about 50 mg of 5′-(5-Cyano-1-methyl-1H-pyrrol-2-yl)spiro[cyclohexane-1,3′-[3H]indol]-2′-ylidenecyanamide is delivered to the patient daily.

The next experiment concerns acne vulgaris. The experiment in a line: Treatment of acne in a human patient, oral tablet daily. The experiment is classed as in vivo. To be noted: about 20 mg tablet orally daily. How it is done: A human patient having acne vulgaris is treated according to the present invention. Specifically, 5-(5-Cyano-1-methyl-1H-pyrrol-2-yl)spiro[cyclohexane-1,3′-[3H]indol]-2′-ylidenecyanamide is orally delivered to the patient daily. Delivery is in the form of a tablet formulated to contain about 20 mg of 5′-(5-Cyano-1-methyl-1H-pyrrol-2-yl)spiro[cyclohexane-1,3′-[3H]indol]-2′-ylidenecyanamide.

The target of a further experiment is T1, androgen receptor (AR) (Mus musculus, UniProt P19091).
T1 construct: in the L929 cells which express the AR but not the PR; endogenous in cells; host or cells: L929 cells
T1 sequence (P19091 1-899): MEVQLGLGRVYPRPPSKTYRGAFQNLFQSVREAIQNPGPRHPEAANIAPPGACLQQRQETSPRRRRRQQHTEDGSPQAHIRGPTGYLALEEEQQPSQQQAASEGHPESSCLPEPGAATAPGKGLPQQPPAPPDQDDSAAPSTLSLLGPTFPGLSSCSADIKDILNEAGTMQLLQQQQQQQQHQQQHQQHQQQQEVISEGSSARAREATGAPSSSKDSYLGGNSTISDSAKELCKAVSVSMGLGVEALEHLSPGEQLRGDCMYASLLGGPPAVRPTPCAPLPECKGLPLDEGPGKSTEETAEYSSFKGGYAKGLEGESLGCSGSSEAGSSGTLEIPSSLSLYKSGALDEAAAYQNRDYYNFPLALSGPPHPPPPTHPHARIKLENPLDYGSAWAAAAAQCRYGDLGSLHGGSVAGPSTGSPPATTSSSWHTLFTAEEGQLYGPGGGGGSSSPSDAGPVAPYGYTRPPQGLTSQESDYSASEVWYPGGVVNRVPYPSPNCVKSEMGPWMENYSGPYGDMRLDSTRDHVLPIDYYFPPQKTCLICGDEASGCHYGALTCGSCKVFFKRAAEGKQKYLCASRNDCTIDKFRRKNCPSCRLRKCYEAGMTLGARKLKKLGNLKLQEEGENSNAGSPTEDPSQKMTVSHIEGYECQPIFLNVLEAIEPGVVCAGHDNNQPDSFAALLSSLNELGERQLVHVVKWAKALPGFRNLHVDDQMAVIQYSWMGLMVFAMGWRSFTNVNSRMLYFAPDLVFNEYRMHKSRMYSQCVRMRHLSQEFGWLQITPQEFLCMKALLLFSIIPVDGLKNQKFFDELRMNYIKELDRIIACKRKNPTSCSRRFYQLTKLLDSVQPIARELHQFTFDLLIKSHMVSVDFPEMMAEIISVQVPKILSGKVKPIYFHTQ
The experiment can be described thus: Androgen receptor agonistic and antagonistic activity, PRE-tk-luciferase reporter in L929 cells. Format: cell-based. How it is done:
The androgen receptor (AR) agonistic and antagonistic activity of the compositions of the invention in the L929 cells which express the AR but not the PR was evaluated as described in Zhang et al., Steroids, 65(10–11): 637–643 (October–November 2000).
Cells were plated in 96-well plates at 25,000 cells/well in DMEM (BioWhittaker) with 10% (v/v) fetal bovine serum (FBS). The next day, cells were infected with the adenovirus PRE-tk-luciferase reporter construct (2×10^9 pfu/ml particles) and kept in DMEM containing 10% charcoal stripped FBS for an additional 24 hours. […] To test the anti-androgenic activity, cells were co-treated with 3 nM DHT. Luciferase activity was measured 24 hours following the treatment.
A general note: Reporter assays use an easily measured gene product as a stand-in for the process of interest.

For orientation: IC50 means the concentration that gives 50% inhibition. Regarding `Cn1c(C#N)ccc1-c1ccc2c(c1)C1(CCCCC1)C(=NC#N)N2` [5′-(5-Cyano-1-methyl-1H-pyrrol-2-yl)spiro[cyclohexane-1,3′-[3H]indol]-2′-ylidenecyanamide], the eczema result in the experiment on eczema (after about 12 weeks) was “improvement in the eczema is observed”. In addition, in the experiment on eczema (thirty days after the treatment), the “dryness of the skin” value is listed as “a decrease in the dryness affected to the skin is noticed”. Further, the acne vulgaris result in the experiment on acne vulgaris (after about 24 weeks) is listed as “improvement in the acne vulgaris is observed”. Besides, the “presence of lesions caused by acne vulgaris” value with acne vulgaris (forty-five to sixty days after the treatment) is “a decrease in the presence of lesions caused by acne vulgaris is noticed”. Besides, the agonistic activity entry at androgen receptor (AR) (at the maximum concentration tested (10 nM)) is reported as “only marginal agonistic activity”. Further, the IC50 at androgen receptor (AR) (co-treated with 3 nM DHT, luciferase activity 24 hours after treatment, read-out: IC50 (anti-androgenic activity)) came to 313 nM. In addition, the antagonistic activity entry at androgen receptor (AR) (nine point dose response, co-treated with 3 nM DHT) is reported as “significant antagonistic activity”.

Source of the values: patent US7115649B2, “Methods of treating skin disorders using thio-oxindole derivatives” (Wyeth, priority 2002, dated 2006).
